pIC50: −log10 of the molar value.
Tests used:
FAAH = molecular target: T1, FAAH (Homo sapiens, UniProt O00519); assay: FAAH inhibition, human brain membrane homogenate assay; assay type: biochemical; conditions: human brain homogenate; average activity; read-out: Human brain Extract FAAH IC50
T1 construct: Reactions were initiated by adding 12.5 μg of brain microsome; tissue ABS, Inc; host or cells: human brain cerebral cortex, membrane/microsome fraction pooled from 3 donors
T1 sequence (O00519 1-579): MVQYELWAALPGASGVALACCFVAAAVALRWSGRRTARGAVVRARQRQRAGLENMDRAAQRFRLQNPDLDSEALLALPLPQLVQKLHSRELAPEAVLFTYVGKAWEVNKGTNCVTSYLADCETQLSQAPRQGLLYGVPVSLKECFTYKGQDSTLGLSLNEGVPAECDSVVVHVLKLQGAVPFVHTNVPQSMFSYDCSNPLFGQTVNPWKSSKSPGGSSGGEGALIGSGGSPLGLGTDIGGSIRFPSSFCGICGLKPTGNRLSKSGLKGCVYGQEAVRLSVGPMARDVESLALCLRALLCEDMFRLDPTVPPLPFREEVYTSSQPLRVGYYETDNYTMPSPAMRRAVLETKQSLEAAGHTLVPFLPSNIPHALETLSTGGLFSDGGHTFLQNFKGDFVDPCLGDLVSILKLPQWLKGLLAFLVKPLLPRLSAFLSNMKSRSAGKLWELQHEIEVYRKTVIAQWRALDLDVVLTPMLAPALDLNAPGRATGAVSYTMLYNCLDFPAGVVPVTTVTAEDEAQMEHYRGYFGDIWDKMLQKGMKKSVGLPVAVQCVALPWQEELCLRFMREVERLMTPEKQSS

human FAAH-1 = molecular target: T2, human FAAH-1 (Homo sapiens, UniProt O00519); assay: Whole cell anandamide hydrolysis assay (HeLa clone 5c5 transfected with human FAAH-1); assay type: cell-based; conditions: HeLa clone 5c5 expressing human FAAH-1; read-out: human FAAH whole cell IC50
T2 sequence (O00519 1-579): T1 sequence (O00519 1-579)
Description: FAAH activity was assayed in whole cells using methods disclosed previously (Maccarone et al., 1998 J Biol. Chem. 273:32332 and Bisogno et al., 1997 J Biol. Chem. 272:3315). In addition to the cell lines described in Maccarone et al. and Bisogno et al., MCF7 (ATCC designation HTB-22) and T84 (ATCC designation CCL-248) cell lines were also used in these assays.
cDNA expression clone for human FAAH-1 (in pcDNA3 vector) (Genbank Accession U82535; obtained from Benjamin Cravatt, Scripps Research Institute, La Jolla, Calif.) was linearized by digestion with BglII (New England Biolabs) and transfected by calcium phosphate into human HeLa cells (ATCC catalog #CCL-2). […] Following transfection, a stable HeLa-derived clone, designated 5c5, was isolated by single colony purification and expanded and maintained in modified Eagles medium (MEM; VWR catalog #45000-300) containing 10% fetal bovine serum (FBS), 2 mM L-glutamine, and 0.5 mg/mL G-418 (Sigma catalog #G5013).
Clone 5c5 (50,000 cells in 150 μL) was seeded into 96-well plates and incubated overnight (5% CO2, 37° C.). Media was carefully replaced with 180 μL DMEM/F12 medium (VWR catalog #45000-350) containing 15 mM HEPES, pH 7.4 and 0.1% fatty acid free BSA (Sigma catalog #A0281). Then, 2 μL of 100× desired final concentrations of certain exemplary compounds described herein were made up in DMSO, added to wells containing cells, and plates were incubated at 37° C. for 10 min. Next, 20 μL of 5 μM anandamide (Cayman catalog #90050) spiked with 8 μCi of anandamide-(ethanolamine-1-[^3H]) (American Radiolabeled Chemicals, Inc., catalog #ART 626) was added to the cells and the plates were incubated for an additional 15 min at 37° C. The reactions were terminated by chilling the plates on ice and adding 20 μL of 0.5M of potassium phosphate buffer (adjusted to pH 2.1 with phosphoric acid).
The acidified reactions were transferred to 96-well filter plates (0.25 mL capacity/well, 1.2 micron glass fiber pre-filter packed above 0.65 micron pore-size PVDF membrane, Millipore catalog MSFCN6B50) containing 25 μL charcoal (neutral activated carbon, Fisher Scientific catalog C170-500) per well. Prior to the assay, charcoal was measured and loaded onto the plate using an aluminum 96-well column loading device (Millipore catalog MACL09625). The filter plate was assembled over an empty 96-well plate (Costar) using a centrifuge alignment frame (Millipore catalog MACF09604) to allow for collection of the filtrate in the receiver plate. The charcoal glass-fiber filter plates were pre-washed with methanol by centrifugation 650×g for 10 min). Next, 80 μL of water was added to the wells of the pre-washed 96 well charcoal filter plate. Then, 90 μL of the acidified reaction mixture was added to the water in the wells of the charcoal plate. The samples were centrifuged as above. The substrate remained bound to the charcoal, whereas the [^3H]-ethanolamine product formed flowed through and was transferred to the microplates containing scintillation cocktail and quantified in a micro-plate scintillation counter (Perkin-Elmer Microbeta). Control reactions with either no cells or cells treated with DMSO alone were performed in triplicate and used to define background (no cells) and 100% activity (DMSO alone).
Following subtraction of background radioactivity, data were expressed as percent inhibition relative to 100% activity and fit with a nonlinear regression curve using GraphPad Prism Software (GraphPad Software Inc). IC50 values were calculated from the resulting dose-response curves constrained at top and bottom to 100% and 0%, respectively.

## COc1cc(NC(=O)C(=O)c2c(C)n(Cc3ccc(Cl)cc3)c3ccc(OC)c(F)c23)ccn1 [Compound 59, 2-(1-(4-chlorobenzyl)-4-fluoro-5-methoxy-2-methyl-1H-indol-3-yl)-N-(2-methoxypyridin-4-yl)-2-oxoacetamide]
FAAH
  pIC50: > 7.00
Human FAAH-1
  pIC50: > 7.00

## COc1ccc2c(c1)c(C(=O)C(=O)Nc1ccnc(OC)c1)c(C)n2Cc1cnc(Cl)cn1 [Compound 12, 2-(1-((5-chloropyrazin-2-yl)methyl)-5-methoxy-2-methyl-1H-indol-3-yl)-N-(2-methoxypyridin-4-yl)-2-oxoacetamide]
FAAH
  pIC50: > 7.00
Human FAAH-1
  pIC50: > 7.00

## COc1cc(NC(=O)C(=O)c2c(C)n(Cc3ccc(Cl)cc3)c3ccc(N(C)C)cc23)ccn1 [Compound 17, 2-(1-(4-chlorobenzyl)-5-(dimethylamino)-2-methyl-1H-indol-3-yl)-N-(2-methoxypyridin-4-yl)-2-oxoacetamide]
FAAH
  pIC50: > 7.00
Human FAAH-1
  pIC50: > 7.00

## CNc1ccc2c(c1)c(C(=O)C(=O)Nc1ccnc(OC)c1)c(C)n2Cc1ccc(Cl)cc1 [Compound 9, 2-(1-(4-chlorobenzyl)-2-methyl-5-(methylamino)-1H-indol-3-yl)-N-(2-methoxypyridin-4-yl)-2-oxoacetamide]
FAAH
  pIC50: > 7.00
Human FAAH-1
  pIC50: > 7.00

## Cc1c(C(=O)C(=O)Nc2cccc(Cl)c2)c2cc(O)ccc2n1Cc1ccc(Cl)cc1 [Compound 71, 2-(1-(4-chlorobenzyl)-5-hydroxy-2-methyl-1H-indol-3-yl)-N-(3-chlorophenyl)-2-oxoacetamide]
FAAH
  pIC50: > 7.00
Human FAAH-1
  pIC50: > 7.00

## COc1cc(NC(=O)C(=O)c2c(C)n(Cc3ccc(Cl)cc3)c3cnccc23)ccn1 [Compound 35, 2-(1-(4-chlorobenzyl)-2-methyl-1H-pyrrolo[2,3-c]pyridin-3-yl)-N-(2-methoxypyridin-4-yl)-2-oxoacetamide]
FAAH
  pIC50: 6.00 to 7.00
Human FAAH-1
  pIC50: > 7.00

## COc1cc(NC(=O)C(=O)c2c(C)n(Cc3ccc(Cl)cc3)c3ccc(O)cc23)ccn1 [Compound 2, 2-(1-(4-chlorobenzyl)-5-hydroxy-2-methyl-1H-indol-3-yl)-N-(2-methoxypyridin-4-yl)-2-oxoacetamide]
FAAH
  pIC50: > 7.00
Human FAAH-1
  pIC50: > 7.00

## COc1cc(NC(=O)C(=O)c2c(C)n(Cc3ncc(Cl)cc3F)c3cc(F)c(OC)cc23)ccn1 [Compound 99, 2-(1-((5-chloro-3-fluoropyridin-2-yl)methyl)-6-fluoro-5-methoxy-2-methyl-1H-indol-3-yl)-N-(2-methoxypyridin-4-yl)-2-oxoacetamide]
FAAH
  pIC50: > 7.00
Human FAAH-1
  pIC50: > 7.00

## COc1cc(NC(=O)C(=O)c2c(C)n(Cc3ccc(Cl)cn3)c3ccc(N(C)C)cc23)ccn1 [Compound 66, 2-(1-((5-chloropyridin-2-yl)methyl)-5-(dimethylamino)-2-methyl-1H-indol-3-yl)-N-(2-methoxypyridin-4-yl)-2-oxoacetamide]
FAAH
  pIC50: > 7.00
Human FAAH-1
  pIC50: > 7.00

## COc1cc(NC(=O)C(=O)c2c(C)n(Cc3ccc(F)cc3F)c3cc(F)c(OC)cc23)ccn1 [Compound 14, 2-(1-(2,4-difluorobenzyl)-6-fluoro-5-methoxy-2-methyl-1H-indol-3-yl)-N-(2-methoxypyridin-4-yl)-2-oxoacetamide]
FAAH
  pIC50: > 7.00
Human FAAH-1
  pIC50: > 7.00

## COc1cc(NC(=O)C(=O)c2c(C)n(Cc3ccc(Cl)cn3)c3cc(F)c(OC)cc23)ccn1 [Compound 64, 2-(1-((5-chloropyridin-2-yl)methyl)-6-fluoro-5-methoxy-2-methyl-1H-indol-3-yl)-N-(2-methoxypyridin-4-yl)-2-oxoacetamide]
FAAH
  pIC50: > 7.00
Human FAAH-1
  pIC50: > 7.00

## COc1cc(NC(=O)C(=O)c2c(C)n(Cc3ccc(Cl)cc3)c3ncc(C)cc23)ccn1 [Compound 76, 2-(1-(4-chlorobenzyl)-2,5-dimethyl-1H-pyrrolo[2,3-b]pyridin-3-yl)-N-(2-methoxypyridin-4-yl)-2-oxoacetamide]
FAAH
  pIC50: > 7.00
Human FAAH-1
  pIC50: > 7.00

## COc1cc(NC(=O)C(=O)c2c(C)n(Cc3ccc(Cl)cc3)c3ccc(CO)cc23)ccn1 [Compound 8, 2-(1-(4-chlorobenzyl)-5-(hydroxymethyl)-2-methyl-1H-indol-3-yl)-N-(2-methoxypyridin-4-yl)-2-oxoacetamide]
FAAH
  pIC50: > 7.00
Human FAAH-1
  pIC50: > 7.00

## COc1cnc2c(c1)c(C(=O)C(=O)Nc1ccnc(OC)c1)c(C)n2Cc1ncc(Cl)cc1F [Compound 34, 2-(1-((5-chloro-3-fluoropyridin-2-yl)methyl)-5-methoxy-2-methyl-1H-pyrrolo[2,3-b]pyridin-3-yl)-N-(2-methoxypyridin-4-yl)-2-oxoacetamide]
FAAH
  pIC50: > 7.00
Human FAAH-1
  pIC50: > 7.00

## CCN(CC)c1ccc2c(c1)c(C(=O)C(=O)Nc1ccnc(OC)c1)c(C)n2Cc1ccc(Cl)cc1 [Compound 24, 2-(1-(4-chlorobenzyl)-5-(diethylamino)-2-methyl-1H-indol-3-yl)-N-(2-methoxypyridin-4-yl)-2-oxoacetamide]
FAAH
  pIC50: 5.00 to 6.00
Human FAAH-1
  pIC50: 6.00 to 7.00

## COc1cc(NC(=O)C(=O)c2c(C)n(Cc3ccc(Cl)cc3)c3ccncc23)ccn1 [Compound 37, 2-(1-(4-chlorobenzyl)-2-methyl-1H-pyrrolo[3,2-c]pyridin-3-yl)-N-(2-methoxypyridin-4-yl)-2-oxoacetamide]
FAAH
  pIC50: > 7.00
Human FAAH-1
  pIC50: > 7.00

## COc1cc(NC(=O)C(=O)c2c(C)n(Cc3ccc(Cl)cc3)c3ccc(OC(F)(F)F)cc23)ccn1 [Compound 23, 2-(1-(4-chlorobenzyl)-2-methyl-5-(trifluoromethoxy)-1H-indol-3-yl)-N-(2-methoxypyridin-4-yl)-2-oxoacetamide]
FAAH
  pIC50: > 7.00
Human FAAH-1
  pIC50: > 7.00

## COc1cc(NC(=O)C(=O)c2c(C)n(Cc3ccc(Cl)cc3)c3ccc(OC)c(Cl)c23)ccn1 [Compound 58, 2-(4-chloro-1-(4-chlorobenzyl)-5-methoxy-2-methyl-1H-indol-3-yl)-N-(2-methoxypyridin-4-yl)-2-oxoacetamide]
FAAH
  pIC50: > 7.00
Human FAAH-1
  pIC50: > 7.00

## COc1cc(NC(=O)C(=O)c2c(C)n(Cc3ccc(Cl)cc3)c3ccc(COC(C)=O)cc23)ccn1 [Compound 10, (1-(4-chlorobenzyl)-3-(2-(2-methoxypyridin-4-ylamino)-2-oxoacetyl)-2-methyl-1H-indol-5-yl)methyl acetate]
FAAH
  pIC50: > 7.00
Human FAAH-1
  pIC50: > 7.00

## COc1cc(NC(=O)C(=O)c2c(C)n(Cc3ccc(Cl)cc3)c3ccc(Br)cc23)ccn1 [Compound 18, 2-(5-bromo-1-(4-chlorobenzyl)-2-methyl-1H-indol-3-yl)-N-(2-methoxypyridin-4-yl)-2-oxoacetamide]
FAAH
  pIC50: > 7.00
Human FAAH-1
  pIC50: > 7.00

Source: patent publication US20150175599A1, “FAAH Inhibitors” (Ironwood Pharmaceuticals, Inc., priority 2010, published 2015)
